From ChEMBL document CHEMBL1201862, “PubChem BioAssay data set” (2004) come the findings set out here.

Among the test systems are SF-539; UACC-257; OVCAR-8; LOX IMVI; NCI/ADR-RES; RXF 393; SF-268; Hs-578T; HT-29; MCF7; SF-295; UACC-62; ACHN; Malme-3M; SNB-19; NCI-H23; HOP-62; SR; U-251; HL-60.
Holding throughout (assay): inhibition of tumour cell growth, NCI panel, 48 h

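Results reflect a 48-hour exposure of cells in 96-well plates to compound at five concentrations. Abbreviation: GI50, concentration required for 50% inhibition of growth.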 Activity calls are given as the source filed them. Rule as the data show it: active = GI50 up to about 1.1 µM and inactive = higher.

Take `COc1ccc(C(OCC2OC(n3cc(C)c(=O)[nH]c3=O)CC2n2cc(Cn3cc(I)c(=O)[nH]c3=O)nn2)(c2ccccc2)c2ccccc2)cc1` (stereo not given): the GI50 in the assay on SF-539, in the assay with UACC-257, in the assay with OVCAR-8, with LOX IMVI, in the assay with NCI/ADR-RES and in the assay with RXF 393 was > 100 µM (inactive) each time. Further, the GI50 in the assay with SF-268 was 78.5 µM (inactive); in the assay on Hs-578T, 44.8 µM (inactive); with HT-29, > 100 µM (inactive); with MCF7 it was > 100 µM (inactive); in the assay on SF-295, > 100 µM (inactive); in the assay with UACC-62 it was > 100 µM (inactive). The GI50 in the assay on ACHN, in the assay with Malme-3M, with SNB-19, with NCI-H23, in the assay with HOP-62 and in the assay on SR was > 100 µM (inactive) in each case. Also, the GI50 with U-251 was > 100 µM (inactive); in the assay with HL-60, 1.58 µM (inactive).
As to `O=C(O)c1ccccc1/C=N/N=C1NCCCCN1`, the GI50 in the assay on SF-539, with UACC-257, in the assay on OVCAR-8, with LOX IMVI, in the assay on NCI/ADR-RES and with RXF 393 was > 100 µM (inactive) throughout. Further, the GI50 with SF-268, with Hs-578T, in the assay with HT-29, with MCF7, in the assay with SF-295 and with UACC-62 was > 100 µM (inactive) throughout. The GI50 with ACHN, in the assay with Malme-3M, in the assay with SNB-19, in the assay with NCI-H23, with HOP-62 and in the assay on SR was > 100 µM (inactive) each time. Besides, the GI50 with U-251 and in the assay on HL-60 was > 100 µM (inactive) each time.
With `CCCCCCCC(=O)N/N=C/c1ccc(Sc2nccn2C)c([N+](=O)[O-])c1`, the GI50 in the assay with SF-539 is 17 µM (inactive); with UACC-257 it was 13.7 µM (inactive); with OVCAR-8, 14.4 µM (inactive); with LOX IMVI, 10.4 µM (inactive); in the assay with NCI/ADR-RES it was 17.7 µM (inactive); with RXF 393, 14.7 µM (inactive). For the same molecule, the GI50 with SF-268 is 15.7 µM (inactive); with Hs-578T, 18.5 µM (inactive); in the assay with HT-29 it was 9.79 µM (inactive); in the assay with MCF7, 16.6 µM (inactive); in the assay on SF-295 it was 15.6 µM (inactive); with UACC-62, 13 µM (inactive). For the same molecule, the GI50 in the assay with ACHN was 21.9 µM (inactive); with Malme-3M it was 14.4 µM (inactive); in the assay on SNB-19, 21.4 µM (inactive); with NCI-H23 it was 18.2 µM (inactive); in the assay with HOP-62, 17.5 µM (inactive); in the assay with SR it was 18.8 µM (inactive). Further, the GI50 is 16.2 µM (inactive) in the assay on U-251 and 0.27 µM (active) with HL-60.
